Source: PubChem BioAssay (NCI)
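Step 1: Grow cells in 96-well plates. Step 2: Expose to compound for 48 hours at 5 concentrations. Step 3: Interpolate endpoints linearly; if unreached, use highest concentration. GI50 is the concentration that inhibits growth by half. TGI marks complete inhibition of growth.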

Assays:
Experiment in all cases: inhibition of tumour cell growth, NCI panel, 48 h
[1] = tested on: 786-0 renal
[2] = tested on: A498 renal
[3] = tested on: A549 NSCLC
[4] = tested on: ACHN renal
[5] = tested on: CAKI-1 renal
[6] = tested on: CCRF-CEM leukemia
[7] = tested on: COLO 205 colon
[8] = tested on: DU-145 prostate
[9] = tested on: EKVX NSCLC
[10] = tested on: HCC-2998 colon
[11] = tested on: HCT-116 colon
[12] = tested on: HCT-15 colon
[13] = tested on: HL-60(TB) leukemia
[14] = tested on: HOP-62 NSCLC
[15] = tested on: HOP-92 NSCLC
[16] = tested on: HS 578T breast
[17] = tested on: HT29 colon
[18] = tested on: IGROV1 ovarian
[19] = tested on: K-562 leukemia
[20] = tested on: KM12 colon
[21] = tested on: LOX IMVI melanoma
[22] = tested on: MALME-3M melanoma
[23] = tested on: MDA-MB-231 breast
[24] = tested on: MDA-MB-435
[25] = tested on: MDA-N
[26] = tested on: MOLT-4 leukemia
[27] = tested on: NCI-H226 lung
[28] = tested on: NCI-H23 lung
[29] = tested on: NCI-H460 lung
[30] = tested on: NCI-H522 lung
[31] = tested on: NCI/ADR-RES ovarian
[32] = tested on: OVCAR-4 ovarian
[33] = tested on: OVCAR-5 ovarian
[34] = tested on: OVCAR-8 ovarian
[35] = tested on: PC-3 prostate
[36] = tested on: RPMI-8226 leukemia
[37] = tested on: RXF 393 renal
[38] = tested on: SF-268 CNS
[39] = tested on: SF-295 CNS
[40] = tested on: SF-539 CNS
[41] = tested on: SK-MEL-2 melanoma
[42] = tested on: SK-MEL-28 melanoma
[43] = tested on: SK-MEL-5 melanoma
[44] = tested on: SK-OV-3 ovarian
[45] = tested on: SN12C renal
[46] = tested on: SNB-19 CNS
[47] = tested on: SNB-75 CNS
[48] = tested on: SR leukemia
[49] = tested on: SW-620 colon
[50] = tested on: T-47D breast
[51] = tested on: TK-10 renal
[52] = tested on: U251 CNS
[53] = tested on: UACC-257 melanoma
[54] = tested on: UACC-62 melanoma
[55] = tested on: UO-31 renal
[56] = tested on: M14 melanoma
[57] = tested on: MCF7 breast
[58] = tested on: OVCAR-3 ovarian
[59] = tested on: BT-549 breast

## Cn1c(=Nc2ccccc2[N+](=O)[O-])sc2ccccc21
[1]
  TGI: > 100 µM
[2]
  TGI: > 100 µM
[3]
  TGI: > 100 µM
[4]
  TGI: > 100 µM
[5]
  TGI: > 100 µM
[6]
  TGI: > 100 µM
[7]
  TGI: > 100 µM
[8]
  TGI: > 100 µM
[9]
  TGI: > 100 µM
[10]
  TGI: > 100 µM
[11]
  TGI: > 100 µM
[12]
  TGI: > 100 µM
[13]
  TGI: > 100 µM
[14]
  TGI: 48.3 µM
[15]
  TGI: 61.7 µM
[16]
  TGI: > 100 µM
[17]
  TGI: > 100 µM
[18]
  TGI: > 100 µM
[19]
  TGI: > 100 µM
[20]
  TGI: 15.5 µM
[21]
  TGI: > 100 µM
[22]
  TGI: > 100 µM
[23]
  TGI: > 100 µM
[24]
  TGI: > 100 µM
[25]
  TGI: > 100 µM
[26]
  TGI: > 100 µM
[27]
  TGI: > 100 µM
[28]
  TGI: > 100 µM
[29]
  TGI: > 100 µM
[30]
  TGI: > 100 µM
[31]
  TGI: > 100 µM
[32]
  TGI: 86.9 µM
[33]
  TGI: > 100 µM
[34]
  TGI: > 100 µM
[35]
  TGI: > 100 µM
[36]
  TGI: > 100 µM
[37]
  TGI: > 100 µM
[38]
  TGI: > 100 µM
[39]
  TGI: > 100 µM
[40]
  TGI: > 100 µM
[41]
  TGI: > 100 µM
[42]
  TGI: > 100 µM
[43]
  TGI: > 100 µM
[44]
  TGI: 97.2 µM
[45]
  TGI: > 100 µM
[46]
  TGI: > 100 µM
[47]
  TGI: 89 µM
[48]
  TGI: > 100 µM
[49]
  TGI: > 100 µM
[50]
  TGI: > 100 µM
[51]
  TGI: 45.2 µM
[52]
  TGI: > 100 µM
[53]
  TGI: > 100 µM
[54]
  TGI: > 100 µM
[55]
  TGI: > 100 µM

## O=C(Nc1ccn(C2CCC(COC(c3ccccc3)(c3ccccc3)c3ccccc3)O2)c(=O)n1)c1ccccc1 (configuration not stated)
[1]
  TGI: 6.41 µM
[3]
  TGI: 13 µM
[4]
  TGI: 9.74 µM
[5]
  TGI: 13.4 µM
[6]
  TGI: 9.04 µM
[7]
  TGI: 4.2 µM
[8]
  TGI: 15.5 µM
[9]
  TGI: 14.4 µM
[10]
  TGI: 29.2 µM
[11]
  TGI: 11.9 µM
[12]
  TGI: 11.2 µM
[13]
  TGI: 4.7 µM
[14]
  TGI: 16.3 µM
[15]
  TGI: 4.74 µM
[16]
  TGI: 9.05 µM
[17]
  TGI: 6.09 µM
[18]
  TGI: 13.4 µM
[19]
  TGI: 7.97 µM
[20]
  TGI: 14.6 µM
[21]
  TGI: 7.02 µM
[56]
  TGI: 11.8 µM
[22]
  TGI: 9.91 µM
[57]
  TGI: 10.2 µM
[23]
  TGI: 13.9 µM
[24]
  TGI: 10.6 µM
[25]
  TGI: 10.5 µM
[26]
  TGI: 5.16 µM
[27]
  TGI: 18 µM
[28]
  TGI: 7.8 µM
[29]
  TGI: 10.4 µM
[30]
  TGI: 19.2 µM
[31]
  TGI: 8.73 µM
[58]
  TGI: 6.47 µM
[32]
  TGI: 7.71 µM
[33]
  TGI: 7.95 µM
[34]
  TGI: 10.1 µM
[35]
  TGI: 5.71 µM
[36]
  TGI: 5.21 µM
[37]
  TGI: 11.1 µM
[38]
  TGI: 17.4 µM
[39]
  TGI: 5.9 µM
[40]
  TGI: 7 µM
[41]
  TGI: 8.71 µM
[42]
  TGI: 16.9 µM
[43]
  TGI: 6.41 µM
[44]
  TGI: 26.3 µM
[45]
  TGI: 4.33 µM
[46]
  TGI: 14.8 µM
[47]
  TGI: 8.35 µM
[48]
  TGI: 4.82 µM
[49]
  TGI: 15.2 µM
[50]
  TGI: 27.9 µM
[52]
  TGI: 13.8 µM
[53]
  TGI: 17.9 µM
[54]
  TGI: 16.7 µM
[55]
  TGI: 14.1 µM

## O=C1NC(=O)/C(=C/c2ccc3nccc(-c4ccncc4)c3c2)S1
[1]
  GI50: 0.345 µM
  TGI: 3.15 µM
[2]
  GI50: 0.0335 µM
  TGI: 0.208 µM
[3]
  GI50: 0.61 µM
  TGI: 5.24 µM
[4]
  GI50: 0.469 µM
  TGI: 8.39 µM
[59]
  GI50: 0.212 µM
  TGI: 1.39 µM
[5]
  GI50: 0.289 µM
  TGI: 2.04 µM
[6]
  GI50: 0.495 µM
  TGI: > 10 µM
[7]
  GI50: 0.454 µM
  TGI: 3.67 µM
[8]
  GI50: 0.431 µM
  TGI: > 5.79 µM
[9]
  GI50: 0.407 µM
  TGI: 3.67 µM
[10]
  GI50: 0.35 µM
  TGI: 3.89 µM
[11]
  GI50: 0.466 µM
  TGI: > 5.61 µM
[12]
  GI50: 0.292 µM
  TGI: > 5.08 µM
[13]
  GI50: 0.325 µM
  TGI: > 6.77 µM
[14]
  GI50: 0.359 µM
  TGI: 4.26 µM
[15]
  GI50: 0.0806 µM
  TGI: 0.494 µM
[16]
  GI50: 0.119 µM
  TGI: 0.54 µM
[17]
  GI50: 0.423 µM
  TGI: 6.29 µM
[18]
  GI50: 0.117 µM
  TGI: 0.612 µM
[19]
  GI50: 1.89 µM
  TGI: > 10 µM
[20]
  GI50: 0.817 µM
  TGI: > 10 µM
[21]
  GI50: 0.247 µM
  TGI: 2.73 µM
[56]
  GI50: 0.365 µM
  TGI: 2.79 µM
[22]
  GI50: 0.288 µM
  TGI: 2.12 µM
[57]
  GI50: 0.164 µM
  TGI: > 10 µM
[23]
  GI50: 0.387 µM
  TGI: 3.92 µM
[24]
  GI50: 0.402 µM
  TGI: > 7.25 µM
[26]
  GI50: 0.645 µM
  TGI: 9.91 µM
[27]
  GI50: 0.239 µM
  TGI: 2.76 µM
[28]
  GI50: 0.633 µM
  TGI: > 6 µM
[29]
  GI50: 0.487 µM
  TGI: > 10 µM
[30]
  GI50: 0.23 µM
  TGI: 1.81 µM
[31]
  GI50: 0.885 µM
  TGI: > 10 µM
[58]
  GI50: 0.252 µM
  TGI: 2.07 µM
[32]
  GI50: 0.503 µM
  TGI: 5.89 µM
[33]
  GI50: 0.326 µM
  TGI: 3.89 µM
[34]
  GI50: 0.517 µM
  TGI: > 10 µM
[35]
  GI50: 0.282 µM
  TGI: 2.9 µM
[36]
  GI50: 1.19 µM
  TGI: 6.75 µM
[37]
  GI50: 0.251 µM
  TGI: 1.3 µM
[38]
  GI50: 0.346 µM
  TGI: 5.15 µM
[39]
  GI50: 0.356 µM
  TGI: 2.13 µM
[40]
  GI50: 0.294 µM
  TGI: 1.58 µM
[41]
  GI50: 0.438 µM
  TGI: 2.25 µM
[42]
  GI50: 0.237 µM
  TGI: 2.29 µM
[43]
  GI50: 0.419 µM
  TGI: 1.63 µM
[44]
  GI50: 0.201 µM
  TGI: 0.918 µM
[45]
  GI50: 0.396 µM
  TGI: > 10 µM
[46]
  GI50: 0.429 µM
  TGI: 5.93 µM
[47]
  GI50: 0.0518 µM
  TGI: 0.448 µM
[48]
  GI50: 0.547 µM
  TGI: 4.88 µM
[49]
  GI50: 0.517 µM
  TGI: > 10 µM
[50]
  GI50: 0.0497 µM
  TGI: 0.432 µM
[51]
  GI50: 0.197 µM
  TGI: 1.24 µM
[52]
  GI50: 0.261 µM
  TGI: 2.23 µM
[53]
  GI50: 0.528 µM
  TGI: 5.22 µM
[54]
  GI50: 0.187 µM
  TGI: 1.3 µM
[55]
  GI50: 0.14 µM
  TGI: 1.05 µM
